# Target: ROCK2 (Homo sapiens (Human), UniProt O75116)
# Test: Rho Kinase Inhibition Assay (IMAP fluorescence polarization)
# Assay type: biochemical
# Details: isolated enzyme, 10 μM ATP, 60 minutes at room temperature
# Description: Following the preincubation, 10 μM ATP was added to initiate the reaction. After 60 minutes at room temperature, Molecular Devices IMAP™ binding solution was added to bind phosphorylated substrate. After 30 minutes of incubation in the presence of the IMAP™ beads the fluorescence polarization was read and the ratio was reported as mP. IC50 results were calculated using the Prism software from Graphpad.
# See Tian et al., Arch. Ophthalmol. […] Ophthalmol. Vis. […] Ophthalmol. […] Cytoskel. […] Ophthalmol. Vis. […] Ophthalmol. Vis.
# Sequence of ROCK2 (O75116 11-552): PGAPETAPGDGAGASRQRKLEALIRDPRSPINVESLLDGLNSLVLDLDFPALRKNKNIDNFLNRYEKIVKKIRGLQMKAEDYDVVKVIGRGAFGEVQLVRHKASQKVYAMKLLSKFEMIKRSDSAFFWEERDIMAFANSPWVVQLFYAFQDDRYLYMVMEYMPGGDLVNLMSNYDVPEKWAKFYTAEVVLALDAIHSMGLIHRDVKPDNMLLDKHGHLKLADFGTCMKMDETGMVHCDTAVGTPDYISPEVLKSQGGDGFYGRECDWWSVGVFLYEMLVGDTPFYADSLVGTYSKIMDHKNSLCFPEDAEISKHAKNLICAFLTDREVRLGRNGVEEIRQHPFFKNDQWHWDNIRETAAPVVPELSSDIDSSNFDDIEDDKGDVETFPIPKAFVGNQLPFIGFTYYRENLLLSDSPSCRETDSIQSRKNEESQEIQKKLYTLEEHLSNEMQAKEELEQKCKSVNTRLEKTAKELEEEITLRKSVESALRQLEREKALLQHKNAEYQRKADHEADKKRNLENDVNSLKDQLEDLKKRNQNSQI
row,SMILES,IC50 [nM]
1,"NS(=O)(=O)c1cccc(CN2CCCC(Nc3ccc4[nH]ncc4c3)C2)c1 (centres unmarked) [Compound 1.056, 3-((3-(1H-indazol-5-ylamino)piperidin-1-yl)methyl)benzenesulfonamide]",435
2,"Clc1ccc(CN2CCC[C@H](Nc3ccc4[nH]ncc4c3)C2)cc1Cl [Compound 1.080, (S)-N-(1-(3,4-dichlorobenzyl)piperidin-3-yl)-1H-indazol-5-amine]",162
3,"CCOC(=O)COc1cccc(CN2CCCC(Nc3ccc4[nH]ncc4c3)C2)c1 (centres unmarked) [Compound 1.060, ethyl 2-(3-((3-(1H-indazol-5-ylamino)piperidin-1-yl)methyl)phenoxy)acetate]",87.2
4,"OCCCOc1cccc(CN2CCCC(Nc3ccc4[nH]ncc4c3)C2)c1 (centres unmarked) [Compound 1.084, 3-(3-((3-(1H-indazol-5-ylamino)piperidin-1-yl)methyl)phenoxy)propan-1-ol]",274
5,"c1cc2cc(CN3CCCC(Nc4ccc5[nH]ncc5c4)C3)ccc2o1 (centres unmarked) [Compound 1.052, N-(1-(benzofuran-5-ylmethyl)piperidin-3-yl)-1H-indazol-5-amine]",15.3
6,"CC(C)(C)OC(=O)Cn1ccc2cc(CN3CCCC(Nc4ccc5[nH]ncc5c4)C3)ccc21 (centres unmarked) [Compound 1.112, tert-butyl 2-(5-((3-(1H-indazol-5-ylamino)piperidin-1-yl)methyl)-1H-indol-1-yl)acetate]",2030
7,"CC(C)Cc1ccc(CN2CCCC(Nc3ccc4[nH]ncc4c3)C2)cc1 (centres unmarked) [Compound 1.013, N-(1-(4-isobutylbenzyl)piperidin-3-yl)-1H-indazol-5-amine]",3660
8,"c1cc2cc(CN3CCCC(Nc4ccc5[nH]ncc5c4)C3)ccc2[nH]1 (centres unmarked) [Compound 1.100, N-(1-((1H-indol-5-yl)methyl)piperidin-3-yl)-1H-indazol-5-amine]",42.9
9,"CN(C)Cc1ccc(CN2CCCC(Nc3ccc4[nH]ncc4c3)C2)cc1 (centres unmarked) [Compound 1.019, N-(1-(4-((dimethylamino)methyl)benzyl)piperidin-3-yl)-1H-indazol-5-amine]",13400
10,"CCc1ccc(CN2CCCC(Nc3ccc4[nH]ncc4c3)C2)cc1 (centres unmarked) [Compound 1.033, N-(1-(4-ethylbenzyl)piperidin-3-yl)-1H-indazol-5-amine]",86.9
11,"NC(=O)COc1cccc(CN2CCCC(Nc3ccc4[nH]ncc4c3)C2)c1 (centres unmarked) [Compound 1.098, 2-(3-((3-(1H-indazol-5-ylamino)piperidin-1-yl)methyl)phenoxy)acetamide]",250
12,"OCc1ccc(CN2CCCC(Nc3ccc4[nH]ncc4c3)C2)cc1 (centres unmarked) [Compound 1.025, (4-((3-(1H-indazol-5-ylamino)piperidin-1-yl)methyl)phenyl)methanol]",588
13,"CC(=O)NCCOc1cccc(CN2CCCC(Nc3ccc4[nH]ncc4c3)C2)c1 (centres unmarked) [Compound 1.111, N-(2-(3-((3-(1H-indazol-5-ylamino)piperidin-1-yl)methyl)phenoxy)ethyl)acetamide]",591
14,"CC(=O)Nc1ccc(CN2CCCC(Nc3ccc4[nH]ncc4c3)C2)cc1 (centres unmarked) [Compound 1.003, N-(4-((3-(1H-indazol-5-ylamino)piperidin-1-yl)methyl)phenyl)acetamide]",6190
15,"CS(=O)(=O)c1cccc(CN2CCCC(Nc3ccc4[nH]ncc4c3)C2)c1 (centres unmarked) [Compound 1.048, N-(1-(3-(methylsulfonyl)benzyl)piperidin-3-yl)-1H-indazol-5-amine]",721
16,"CCS(=O)(=O)Nc1cccc(CN2CCCC(Nc3ccc4[nH]ncc4c3)C2)c1 (centres unmarked) [Compound 1.120, N-(3-((3-(1H-indazol-5-ylamino)piperidin-1-yl)methyl)phenyl)ethanesulfonamide]",109

row,SMILES,IC50 [nM]
1,"Clc1ccc(Oc2cccc(CN3CCCC(Nc4ccc5[nH]ncc5c4)C3)c2)cc1 (centres unmarked) [Compound 1.069, N-(1-(3-(4-chlorophenoxy)benzyl)piperidin-3-yl)-1H-indazol-5-amine]",6050
2,"COc1ccccc1CN1CCCC(Nc2ccc3[nH]ncc3c2)C1 (centres unmarked) [Compound 1.067, N-(1-(2-methoxybenzyl)piperidin-3-yl)-1H-indazol-5-amine]",1850
3,"NC(=O)Cn1ccc2ccc(CN3CCC[C@H](Nc4ccc5[nH]ncc5c4)C3)cc21 [Compound 1.107, (S)-2-(6-((3-(1H-indazol-5-ylamino)piperidin-1-yl)methyl)-1H-indol-1-yl)acetamide]",148
4,"NCCOc1cccc(CN2CCCC(Nc3ccc4[nH]ncc4c3)C2)c1 (centres unmarked) [Compound 1.085, N-(1-(3-(2-aminoethoxy)benzyl)piperidin-3-yl)-1H-indazol-5-amine]",1680
5,"c1cc(N2CCCC2)ccc1CN1CCCC(Nc2ccc3[nH]ncc3c2)C1 (centres unmarked) [Compound 1.011, N-(1-(4-(pyrrolidin-1-yl)benzyl)piperidin-3-yl)-1H-indazol-5-amine]",12200
6,"CC(=O)NCc1cccc(CN2CCCC(Nc3ccc4[nH]ncc4c3)C2)c1 (centres unmarked) [Compound 1.122, N-(3-((3-(1H-indazol-5-ylamino)piperidin-1-yl)methyl)benzyl)acetamide]",254
7,"Nc1n[nH]c2ccc(NC3CCCN(Cc4ccccc4)C3)cc12 (centres unmarked) [Compound 1.050, N5-(1-benzylpiperidin-3-yl)-1H-indazole-3,5-diamine]",1040
8,"CS(=O)(=O)Nc1cccc(CN2CCC[C@H](Nc3ccc4[nH]ncc4c3)C2)c1 [Compound 1.091, (S)-N-(3-((3-(1H-indazol-5-ylamino)piperidin-1-yl)methyl)phenyl)methanesulfonamide]",49.4
9,"OCCn1ccc2cc(CN3CCCC(Nc4ccc5[nH]ncc5c4)C3)ccc21 (centres unmarked) [Compound 1.114, 2-(5-((3-(1H-indazol-5-ylamino)piperidin-1-yl)methyl)-1H-indol-1-yl)ethanol]",1490
10,"OCCn1ccc2ccc(CN3CCCC(Nc4ccc5[nH]ncc5c4)C3)cc21 (centres unmarked) [Compound 1.101, 2-(6-((3-(1H-indazol-5-ylamino)piperidin-1-yl)methyl)-1H-indol-1-yl)ethanol]",68.5
11,"c1ccc(-c2ccc(CN3CCCC(Nc4ccc5[nH]ncc5c4)C3)cc2)cc1 (centres unmarked) [Compound 1.009, N-(1-(biphenyl-4-ylmethyl)piperidin-3-yl)-1H-indazol-5-amine]",1610
12,"NC(=O)Cn1ccc2ccc(CN3CCCC(Nc4ccc5[nH]ncc5c4)C3)cc21 (centres unmarked) [Compound 1.099, 2-(6-((3-(1H-indazol-5-ylamino)piperidin-1-yl)methyl)-1H-indol-1-yl)acetamide]",25.8
13,"Oc1cccc(CN2CCCC(Nc3ccc4[nH]ncc4c3)C2)c1 (centres unmarked) [Compound 1.046, 3-((3-(1H-indazol-5-ylamino)piperidin-1-yl)methyl)phenol]",156
14,"CCOc1cccc(CN2CCCC(Nc3ccc4[nH]ncc4c3)C2)c1 (centres unmarked) [Compound 1.065, N-(1-(3-ethoxybenzyl)piperidin-3-yl)-1H-indazol-5-amine]",326
15,"FC(F)(F)c1cccc(CN2CCC(Nc3ccc4[nH]ncc4c3)C2)c1 (centres unmarked) [Compound 1.064, N-(1-(3-(trifluoromethyl)benzyl)pyrrolidin-3-yl)-1H-indazol-5-amine]",165
16,"Fc1ccc(CN2CCC[C@H](Nc3ccc4[nH]ncc4c3)C2)cc1F [Compound 1.072, (S)-N-(1-(3,4-difluorobenzyl)piperidin-3-yl)-1H-indazol-5-amine]",58.5

# The next lines start with the values.
row,IC50 [nM],SMILES
1,3060,"CS(=O)(=O)Nc1cccc(CN2CCC[C@@H](Nc3cccc4cnccc34)C2)c1 [Compound 2.033, (R)-N-(3-((3-(isoquinolin-5-ylamino)piperidin-1-yl)methyl)phenyl)methanesulfonamide]"
2,1900,"c1cc(N[C@@H]2CCN(Cc3ccc(SC4CC4)cc3)C2)c2ccncc2c1 [Compound 2.021, (R)-N-(1-(4-(cyclopropylthio)benzyl)pyrrolidin-3-yl)isoquinolin-5-amine]"
3,8920,"c1cc(N[C@H]2CCN(Cc3ccc(SC4CC4)cc3)C2)c2ccncc2c1 [Compound 2.024, (S)-N-(1-(4-(cyclopropylthio)benzyl)pyrrolidin-3-yl)isoquinolin-5-amine]"
4,98.8,"COc1ccc(CN2CCCC(Nc3cccc4cnccc34)C2)cc1 (centres unmarked) [Compound 2.001, N-(1-(4-methoxybenzyl)piperidin-3-yl)isoquinolin-5-amine]"
5,1490,"c1ccc(CN2CCCC(Nc3cccc4cnccc34)CC2)cc1 (centres unmarked) [Compound 2.013, N-(1-benzylazepan-4-yl)isoquinolin-5-amine]"
6,3620,"N#Cc1cccc(CN2CCC(Nc3cccc4cnccc34)C2)c1 (centres unmarked) [Compound 2.007, 3-((3-(isoquinolin-5-ylamino)pyrrolidin-1-yl)methyl)benzonitrile]"
7,29.9,"Cc1ccc(CN2CC[C@@H](Nc3cccc4cnccc34)C2)cc1 [Compound 2.025, (R)-N-(1-(4-methylbenzyl)pyrrolidin-3-yl)isoquinolin-5-amine]"
8,14900,"c1cc(NC2CCCN(Cc3ccc(SC4CC4)cc3)C2)c2ccncc2c1 (centres unmarked) [Compound 2.012, N-(1-(4-(cyclopropylthio)benzyl)piperidin-3-yl)isoquinolin-5-amine]"
9,311,"c1cc(N[C@@H]2CCN(Cc3ccc(C4CC4)cc3)C2)c2ccncc2c1 [Compound 2.022, (R)-N-(1-(4-cyclopropylbenzyl)pyrrolidin-3-yl)isoquinolin-5-amine]"
10,1670,"Clc1ccc(CN2CCCC(Nc3cccc4cnccc34)C2)cc1Cl (centres unmarked) [Compound 2.014, N-(1-(3,4-dichlorobenzyl)piperidin-3-yl)isoquinolin-5-amine]"
11,383,"O=C(COc1cccc(CN2CC[C@@H](Nc3cccc4cnccc34)C2)c1)N1CCOCC1 [Compound 2.043, (R)-2-(3-((3-(isoquinolin-5-ylamino)pyrrolidin-1-yl)methyl)phenoxy)-1-morpholinoethanone]"
12,4190,"FC(F)(F)c1cccc(CN2CCCC(Nc3cccc4cnccc34)C2)c1 (centres unmarked) [Compound 2.015, N-(1-(3-(trifluoromethyl)benzyl)piperidin-3-yl)isoquinolin-5-amine]"
